# Target: T1, TarO (N-acetylglucosamine-1-phosphate transferase) (Staphylococcus aureus, UniProt Q2G060)
# T1 sequence (Q2G060 1-351): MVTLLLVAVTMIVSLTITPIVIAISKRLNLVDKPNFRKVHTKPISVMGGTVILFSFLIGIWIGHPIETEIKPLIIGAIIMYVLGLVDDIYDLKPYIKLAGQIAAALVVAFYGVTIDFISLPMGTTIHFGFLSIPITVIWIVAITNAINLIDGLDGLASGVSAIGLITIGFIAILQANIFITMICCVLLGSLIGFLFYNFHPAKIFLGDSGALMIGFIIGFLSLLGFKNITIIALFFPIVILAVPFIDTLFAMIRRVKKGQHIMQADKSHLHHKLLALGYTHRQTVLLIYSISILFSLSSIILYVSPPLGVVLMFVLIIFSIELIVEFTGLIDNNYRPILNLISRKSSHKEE
# Assay type: biochemical
structure (smiles),measurement,value
Clc1ccccc1CN1CCc2sccc2C1 [ticlopidine],IC50,238 ± 14 µM

# From article PMC3552485 (ACS Chemical Biology, 2012)
